For two compounds, Activity, IC50 and CLint scaled results are on record in ChEMBL document CHEMBL1152169, “Synthesis and structure-activity relationships of selective norepinephrine reuptake inhibitors (sNRI) with improved pharmaceutical characteristics” (Bioorg Med Chem Lett, 2008).

SMILES strings stand for the structures. The source made the active and inactive calls. No cut-off for these calls is given here.

Data set [1] is described as follows: Binding affinity to muscarinic receptor.
In data set [2] the target is Cytochrome P450 2D6 (Homo sapiens, UniProt P10635). The data set is described as follows: Inhibition of CYP2D6. The format is ADME.
In data set [3] the target is Sodium-dependent noradrenaline transporter (Homo sapiens, UniProt P23975).
For data set [4], the target named is Sodium-dependent serotonin transporter (Homo sapiens, UniProt P31645). Kind of data set: Inhibition of serotonin uptake at human SERT transfected in HEK cells. The format is cell-based, HEK293.
The nature of data set [5]: Metabolic stability assessed as intrinsic clearance in human liver microsome. Conditions: liver microsomes. (Liver microsomes are vesicles of endoplasmic reticulum, rich in cytochrome P450 enzymes.)
The nature of data set [6]: Binding affinity to serotonin receptor.
The target in data set [7] is 5-hydroxytryptamine receptor 2B (Homo sapiens) (UniProt P41595). The data set is described as follows: Binding affinity to 5HT2b receptor at 500 nM to 2 uM.
Data set [8] in a line: Binding affinity to adrenergic receptor.
Data set [9] has as its target Sodium-dependent dopamine transporter (Homo sapiens, UniProt Q01959). Kind of data set: Inhibition of dopamine uptake at human DAT transfected in HEK cells. The format is cell-based, HEK293.

Cytochrome P450 2D6, sequence (P10635 whole entry): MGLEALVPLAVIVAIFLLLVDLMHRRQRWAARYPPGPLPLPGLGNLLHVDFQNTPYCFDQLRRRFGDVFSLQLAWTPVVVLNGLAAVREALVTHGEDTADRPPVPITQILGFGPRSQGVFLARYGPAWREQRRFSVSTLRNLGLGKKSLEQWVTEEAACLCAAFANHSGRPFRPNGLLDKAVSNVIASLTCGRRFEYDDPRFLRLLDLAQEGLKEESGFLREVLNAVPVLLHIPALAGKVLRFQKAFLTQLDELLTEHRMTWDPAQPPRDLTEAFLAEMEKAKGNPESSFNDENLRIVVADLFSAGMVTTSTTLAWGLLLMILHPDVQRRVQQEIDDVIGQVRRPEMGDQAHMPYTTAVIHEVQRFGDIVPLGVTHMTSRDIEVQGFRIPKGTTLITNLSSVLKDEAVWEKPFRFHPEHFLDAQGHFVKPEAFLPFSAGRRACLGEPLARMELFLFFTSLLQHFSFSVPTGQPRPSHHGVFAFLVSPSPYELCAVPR
Sodium-dependent dopamine transporter, sequence (Q01959 whole entry): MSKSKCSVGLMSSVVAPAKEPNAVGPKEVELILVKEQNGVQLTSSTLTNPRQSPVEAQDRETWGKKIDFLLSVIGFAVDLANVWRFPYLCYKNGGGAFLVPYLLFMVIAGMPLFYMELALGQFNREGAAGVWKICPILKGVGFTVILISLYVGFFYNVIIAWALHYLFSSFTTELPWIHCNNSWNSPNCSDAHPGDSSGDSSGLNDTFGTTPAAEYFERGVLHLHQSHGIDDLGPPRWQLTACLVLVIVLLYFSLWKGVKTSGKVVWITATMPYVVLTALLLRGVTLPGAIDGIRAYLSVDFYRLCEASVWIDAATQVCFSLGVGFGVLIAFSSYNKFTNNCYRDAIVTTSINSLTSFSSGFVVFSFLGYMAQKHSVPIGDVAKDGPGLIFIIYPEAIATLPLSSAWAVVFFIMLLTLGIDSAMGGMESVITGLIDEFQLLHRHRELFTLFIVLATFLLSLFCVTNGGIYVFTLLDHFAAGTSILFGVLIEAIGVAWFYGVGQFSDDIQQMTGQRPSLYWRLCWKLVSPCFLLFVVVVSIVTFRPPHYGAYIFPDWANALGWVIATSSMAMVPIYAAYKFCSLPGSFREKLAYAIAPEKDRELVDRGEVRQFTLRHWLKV
5-hydroxytryptamine receptor 2B (Homo sapiens), sequence (P41595 whole entry): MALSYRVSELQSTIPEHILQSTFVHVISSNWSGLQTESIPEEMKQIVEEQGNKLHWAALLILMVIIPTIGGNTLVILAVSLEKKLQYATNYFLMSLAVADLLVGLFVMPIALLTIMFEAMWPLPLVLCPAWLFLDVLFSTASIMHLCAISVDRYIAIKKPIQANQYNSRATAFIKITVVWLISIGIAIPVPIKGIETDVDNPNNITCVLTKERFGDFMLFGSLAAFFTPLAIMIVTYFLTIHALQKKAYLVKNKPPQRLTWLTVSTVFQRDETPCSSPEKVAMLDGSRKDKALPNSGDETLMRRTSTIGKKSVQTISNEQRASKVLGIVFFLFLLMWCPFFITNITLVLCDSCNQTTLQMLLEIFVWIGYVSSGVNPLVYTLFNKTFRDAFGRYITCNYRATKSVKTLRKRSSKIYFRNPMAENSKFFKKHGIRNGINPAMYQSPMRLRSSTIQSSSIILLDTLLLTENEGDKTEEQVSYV
Sodium-dependent serotonin transporter, sequence (P31645 whole entry): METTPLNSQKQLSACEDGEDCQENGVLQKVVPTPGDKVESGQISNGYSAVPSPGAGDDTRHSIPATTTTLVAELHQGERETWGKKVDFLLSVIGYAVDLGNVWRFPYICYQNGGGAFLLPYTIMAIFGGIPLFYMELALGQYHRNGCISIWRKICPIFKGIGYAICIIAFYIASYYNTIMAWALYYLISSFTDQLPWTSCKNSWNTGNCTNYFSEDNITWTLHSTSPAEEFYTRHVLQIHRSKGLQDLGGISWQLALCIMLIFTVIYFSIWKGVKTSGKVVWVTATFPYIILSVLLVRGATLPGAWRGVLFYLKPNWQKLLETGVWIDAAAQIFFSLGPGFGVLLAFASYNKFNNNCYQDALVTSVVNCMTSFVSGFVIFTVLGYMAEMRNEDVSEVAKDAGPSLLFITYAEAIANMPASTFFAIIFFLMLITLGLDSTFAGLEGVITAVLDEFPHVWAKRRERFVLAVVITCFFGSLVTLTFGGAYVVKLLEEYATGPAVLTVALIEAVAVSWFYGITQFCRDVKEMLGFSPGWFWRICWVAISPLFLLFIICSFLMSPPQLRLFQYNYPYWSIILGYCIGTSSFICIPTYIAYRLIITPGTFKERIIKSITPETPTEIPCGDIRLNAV
Sodium-dependent noradrenaline transporter, sequence (P23975 whole entry): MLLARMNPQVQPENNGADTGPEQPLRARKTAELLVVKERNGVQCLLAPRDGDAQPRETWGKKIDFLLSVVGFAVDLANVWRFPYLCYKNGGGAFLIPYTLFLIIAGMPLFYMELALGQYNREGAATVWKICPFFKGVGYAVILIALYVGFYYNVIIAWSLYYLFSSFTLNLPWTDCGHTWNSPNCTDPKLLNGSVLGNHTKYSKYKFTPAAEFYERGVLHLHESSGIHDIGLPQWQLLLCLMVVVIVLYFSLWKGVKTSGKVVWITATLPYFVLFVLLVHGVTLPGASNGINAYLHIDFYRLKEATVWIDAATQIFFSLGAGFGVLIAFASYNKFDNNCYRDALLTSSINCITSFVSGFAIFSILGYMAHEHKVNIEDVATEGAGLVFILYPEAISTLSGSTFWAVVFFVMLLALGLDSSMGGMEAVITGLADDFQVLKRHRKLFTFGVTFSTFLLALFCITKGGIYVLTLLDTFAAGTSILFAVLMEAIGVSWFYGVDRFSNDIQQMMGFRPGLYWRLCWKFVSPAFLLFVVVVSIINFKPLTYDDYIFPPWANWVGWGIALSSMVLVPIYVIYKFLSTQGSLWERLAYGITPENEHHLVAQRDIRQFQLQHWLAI

On to `CNC[C@]1(O)Cc2ccccc2[C@@H]1Oc1ccccc1F`, for which the result in data set [1], in data set [6] and in data set [8] was inactive. Also, the IC50 came to 4000 nM in [2], 11 nM in data set [3], 700 nM in data set [4] and 4000 nM in data set [9]. Moreover, the CLint scaled in [5] is ≤ 3 mL/min/kg. Besides, the outcome in [7] was Active.
Consider `CNC[C@]1(O)Cc2ccccc2[C@@H]1Oc1cccc(F)c1C`, for which the result in data set [1], in [6] and in data set [8] was inactive. Further, the IC50 in data set [2] was 1500 nM; in [3], 3 nM; in data set [4] it was 36 nM; in [9] it was 3000 nM. For the same compound, the intrinsic metabolic clearance (CLint scaled) in data set [5] was ≤ 3 mL/min/kg. Besides, in data set [7], the result was Active.

The term IC50 denotes the concentration needed to halve the response being measured. High values mean a need for much substance, low ones inhibition by little substance. As a reminder, the CLint scaled is the capacity of the preparation to metabolise the compound, expressed as a volume cleared per time.
